# B1: IL-7: cytokine purchased from R&D systems (protein, UniProt P13232 26-177, looked up)
# Interleukin-7: DCDIEGKDGKQYESVLMVSIDQLLDSMKEIGSNCLNNEFNFFKRHICDANKEGMFLFRAARKLRQFLKMNSTGDFDLHLLKVSEGTTILLNCTGQVKGRKPAALGEAQPTKSLEENKSLKEQKKLNDLCFLKRLLQEIKTCWNKILMGTKEH
# Legend:
# Type in all cases: cell-based, human
# [1] = test system: FasL; assay: FasL expression in CD4+ T cells after AKT and IKK inhibitors, Western blot or flow cytometry; settings: data not shown
# [2] = test system: Bim; assay: Bim expression in CD4+ T cells in response to AKT and IKK inhibitors, Western blot; settings: 24 h, AKT-IV 1.6 μM, wedelolactone 100 μM
# Experimental: (§1) FIG. 7. AKT and IKK mediate FOXO3a phosphorylation and survival in CD4^+ T cell. (A) Regulation of FOXO3a phosphorylation. Purified CD4^+ T Cells were pre-treated for 1 hour with kinase inhibitors (AKT-VI, AKT inhibitor: 10 μM; STO-609, CamKK inhibitor: 5 μg/ml; Wedelolactone, IKK inhibitor: 100 μM and U0126, MEK1/2 inhibitor: 50 μM). pFoxo3a (S253) was assessed. The results are representative of two independent experiments. (B) CD4^+ T cell susceptibility to apoptosis induced upon treatment with specific kinase inhibitors. CD4^+ T cells were cultured in the presence of kinase inhibitors for 24 hrs (U0126:100 μM; STO-609:10 μg/ml; Wedelolactone and AKT-IV as indicated). After 24 h, the proportion of Annexin-V^+, propidium iodide (PI)^+ cells was quantified by flow cytometry. […] Cells were analyzed by Western Blot (WB) using Bim specific antibodies. […] The levels of pAKT were assessed by flow cytometry in TCM- and TEM-gated subsets. The results are represented as the mean fold increase ±SD, calculated as (MFI of stimulated cells/MFI of un-stimulated cells) of five independent experiments. Values of p (determined by two-tailed T-test) are shown.
# (§2) Western Blotting analysis. […] HRP activity was detected using an enhanced chemiluminescence detection procedure (ECL-plus detection system, Amersham Biosciences). […] Protein expression levels were expressed as a percentage of the highest signals obtained. […]
# [3] = test system: CD4+ T cells; assay: Apoptosis of CD4+ T cells cultured with kinase inhibitors, Annexin-V flow cytometry; settings: for proportion of Annexin-V+ cells: CD4+ T cells, 24 hrs with inhibitor; for inhibitor treatment concentration: concentration used to treat sorted TCM and TEM, what the IC50 refers to is not stated
# Experimental: FIG. 7. AKT and IKK mediate FOXO3a phosphorylation and survival in CD4^+ T cell. (A) Regulation of FOXO3a phosphorylation. Purified CD4^+ T Cells were pre-treated for 1 hour with kinase inhibitors (AKT-VI, AKT inhibitor: 10 μM; STO-609, CamKK inhibitor: 5 μg/ml; Wedelolactone, IKK inhibitor: 100 μM and U0126, MEK1/2 inhibitor: 50 μM). pFoxo3a (S253) was assessed. The results are representative of two independent experiments. (B) CD4^+ T cell susceptibility to apoptosis induced upon treatment with specific kinase inhibitors. CD4^+ T cells were cultured in the presence of kinase inhibitors for 24 hrs (U0126:100 μM; STO-609:10 μg/ml; Wedelolactone and AKT-IV as indicated). After 24 h, the proportion of Annexin-V^+, propidium iodide (PI)^+ cells was quantified by flow cytometry. The results are depicted as a percentage of apoptotic cells within the total population and are representative of two independent experiments. (C) Bim expression levels in response to AKT and IKK inhibitors. CD4^+ T cells were treated with AKT-IV (1.6 μM) or wedelolactone (100 μM) for 24 h. Cells were analyzed by Western Blot (WB) using Bim specific antibodies. (D and E) Regulation of AKT and IKK phosphorylation in 4^+ memory subsets. (D) pIKKαβ (S176/180) protein levels in ex-vivo sorted TCM and TEM. […] (E) PBMCs, from healthy donors, were treated with H2O2 (5 mM) or Ig-cross-linked CD28 (2 Hg/ml) for 15 min at 37° C. and labeled with CD4, CD27, CD45RA and pAKT (S473) specific antibodies. The levels of pAKT were assessed by flow cytometry in TCM- and TEM-gated subsets. The results are represented as the mean fold increase ±SD, calculated as (MFI of stimulated cells/MFI of un-stimulated cells) of five independent experiments. Values of p (determined by two-tailed T-test) are shown.
# (§3) Induction and quantification of apoptosis. Apoptotic cells were detected using annexin-V labeling according to the manufacturer's protocol (Biosource). The fluorescence signals were measured by flow cytometry using a BD LSRI flow cytometer (BD-Biosciences). Approximately 50,000-gated events were collected for each sample.
# To confirm the importance of the phosphorylation of FOXO3a in memory T-cell survival, purified CD4^+ T cells were treated with different kinase-inhibitors, and apoptosis was assessed by flow cytometry using Annexin-V labeling. […] Moreover, we observed a significant upregulation of the levels of the pro-apoptotic molecule Bim, known to be a FOXO3a target, in cells treated with AKT or IKK inhibitors (three and eightfold respectively) (FIG. 7C). […] None of the other kinase-inhibitors tested induced apoptosis in CD4^+ T cells (FIG. 7B) even when used at much higher concentrations (data not shown). […]
# [4] = test system: pFOXO3a (S253); assay: FOXO3a phosphorylation (S253) in CD4+ T cells after kinase inhibitors, Western blot; settings: purified CD4+ T cells pre-treated 1 hour; AKT inhibitor 10 μM, Wedelolactone 100 μM
# Experimental: as §1, §2
# [5] = test system: pAKT (S473); assay: AKT phosphorylation (S473) in TCM- and TEM-gated PBMCs, PhosFlow; settings: H2O2 5 mM, 15 min; TCM vs TEM
# Experimental: as §1, with “shown. […]” for “shown.”
# To assess the importance of AKT and IKK in the survival of memory T cells, we evaluated the expression of the phosphorylated forms of these proteins in TCM and TEM subsets. […]
# [6] = test system: TCM; assay: Apoptosis of sorted TCM induced by kinase inhibitors, Annexin-V labeling; settings: 24 h, AKT-IV 1.6 μM, wedelolactone 100 μM, n=2
# Experimental: (§4) FIG. 8. Susceptibility of TCM and TEM to apoptosis induced by kinase inhibitors. Sorted TCM and TEM were cultured with or without AKT and IKK inhibitors as indicated. After 24 h, the percentage of apoptotic cells was quantified by Annexin-V-FITC labeling. Upper panel depict Results from a representative individual. Histogram plots show the percent of Annexin-V positive cells in TCM and TEM cells following a 24 h exposure to AKT or IKK-inhibitors. The dashed lines correspond to untreated cells while the plain lines correspond to cells treated with kinase-inhibitors. […] The fold increase of apoptosis is calculated as % of apoptotic cells in treated cells divided by the % of apoptotic cells in untreated cells.
# as §3
# (§5) After 24 h of treatment, the proportion of apoptotic cells was quantified using Annexin-V labeling (FIG. 8, top panel).
# [7] = test system: TEM; settings: sorted TEM, 24 h; AKT-IV 1.6 μM, wedelolactone 100 μM; n=2
# Experimental: as §4, §3, §5
# [8] = test system: pSTAT5a (Y694); assay: STAT5a phosphorylation in TCM and TEM in response to IL-2 or IL-7, flow cytometry
# Experimental: (B, C and D) PBMCs from healthy donors were treated with IL-2 (100 U/ml) or IL-7 (10 ng/ml) for 15 min at 37° C. Cells were then labeled with Abs to CD4, CD27, CCR7, CD45RA and pSTAT5a. (B) Representative example of pSTAT5a expression levels. TCM-gated cells are represented in light grey and TEM-gated cells are represented in black. (C) Mean Fluorescence Intensity (MFI) of pSTAT5a level of expression measured in response to IL-2 or IL-7, in TCM and TEM (n=4). Mean pSTAT5a signal values are represented by black bars. P-values (determined by a two-tailed T-test) are shown (D) Expression level of CD127, CD25 and CD132 in ex-vivo TCM and TEM.
# Flow cytometry analysis of STAT5a and AKT phosphorylation status. PBMCs were resuspended at 20 millions/ml in RPMI and incubated for 30 min in the presence of CCR7-FITC abs (20 μl/million cells) at room temperature. The cells were then washed and re-suspended at a cell concentration of 5 millions per ml in PBS and stimulated for 15 min at 37° C. in the presence of IL-2 (100 U/ml) or IL-7 (10 ng/ml). Following stimulation, the cells were fixed for 10 min at 37 degrees using cytofix buffer (BD Biosciences), pelleted and then permeabilized in PERM-III buffer (BD Biosciences) for 30 min on ice. […]
# The phosphorylated form of STAT5a (Y694) (pSTAT5a) was quantified by flow cytometry.
# [9] = test system: pFOXO3a (S253, S315 and T32); assay: FOXO3a phosphorylation in CD4+ T cells in response to TCR and cytokine engagement, Western blot; settings: 30 min, IL-7 10 ng/ml, IL-2 100 U/ml
# Experimental: (A) CD4^+ T cells were cultured in the presence of anti-CD3 (2 μg/ml), anti-CD28 (2 μg/ml), anti-CD3+CD28, IL-2 (100 U/ml), IL-7 (10 ng/ml), IFN-γ (50 μg/ml) or PMA (50 ng/ml) for 15 min and analyzed by Western Blot for pFOXO3a (S315 and S253) expression levels. The results are representative of two independent experiments. (B) CD4^+ T cells were cultured in the presence of anti-CD3/anti-CD28, IL-2 (100 U/ml), IL-7 (10 ng/ml) for 30 min and analyzed by Western Blot for pFOXO3a (T32) expression levels.
# Western Blotting analysis. […] Cells were washed twice with PBS and re-suspended in lysis buffer containing 50 mM NaF and 1 mM sodium pyrophosphate. Proteins from total cell extracts (10 μg) were separated on SDS-PAGE and electrotransfered onto PVDF membranes (Roche, Indianapolis, Ind.). Membranes were incubated overnight at 4° C. with specific antibodies as described in the figure legends. Detection of the immune complexes was performed using horseradish peroxidase (HRP)-conjugated goat anti-mouse (1:2500) or goat anti-rabbit IgG antibodies (1:3000). HRP activity was detected using an enhanced chemiluminescence detection procedure (ECL-plus detection system, Amersham Biosciences). Membranes were subsequently stripped and restained with an anti-actin Abs (1:10000). […] Protein expression levels were expressed as a percentage of the highest signals obtained.
Molecule,levels of FasL expression [1],upregulation of Bim levels [2],proportion of Annexin-V+ cells [3],"expression levels of pFOXO3a (S253), fold lower as compared to untreated cells [4]",other results
CC[n+]1c(/C=C/N(C)c2ccccc2)n(-c2ccccc2)c2ccc(-c3nc4ccccc4s3)cc21.[I-] [AKT-IV],did not change,three,increased in a dose-dependant fashion,eightfold,inhibitor treatment concentration [3]: 1.6 µM
OO [H2O2],,,,,induction of pAKT (S473) [5]: higher in TCM than TEM
COc1cc(O)c2c(c1)oc(=O)c1c3cc(O)c(O)cc3oc21 [Wedelolactone],did not change,eightfold,increased in a dose-dependant fashion,4.5 fold,"increase in Annexin-V+ cells relative to untreated cells [6]: eightfold; inhibitor treatment concentration ([3]; Homo sapiens, CD4+ T): 100 µM; increase in Annexin-V+ cells relative to untreated cells [7]: twofold"
B1,,,,,"proportion of cells that up-regulated pSTAT5a, higher in TCM as compared to TEM ([8]; IL-7 10 ng/ml, 15 min, p<0.002): 30%±6.5; pSTAT5a response ([8]; both TCM and TEM, brief IL-7 treatment): upregulated pSTAT5a; levels of pFOXO3a at T32 [9]: threefold"
